PMC9068772, “Discovery of first-in-class nanomolar inhibitors of heptosyltransferase I reveals a new aminoglycoside target and potential alternative mechanism of action” (Scientific Reports, 2022)
Values after ≈ are worked out from the molar mass of the structure shown. Values joined by “and” are separate entries in the source; they are usually repeats but may differ in a detail not shown here. Equal entries are not always repeated.

Legend:
[1] = biological target: T1, Heptosyltransferase I (HepI) WT (Escherichia coli, UniProt P24173); test: HepI inhibition, ADP/NADH coupled assay (wild type); assay type: biochemical, E. coli K12; conditions: for kcat: HepI WT in presence of inhibitor; for Ki: 10 μM ODLA, inhibitor varied; for Type of inhibition with ODLA: excess ADPH, ODLA varied, Lineweaver–Burk, Dixon, Cornish-Bowden; for Type of inhibition against ADPH: excess ODLA, ADPH varied; for ΔG (kcal/mol) Exp: Gibbs equation with Ki as equilibrium constant
T1 construct: made in house; host or cells: E. coli One Shot BL-21-AI
Experimental: As previously reported[11],[14],[15], an ADP/NADH coupled assay was used to monitor HepI activity by monitoring the absorbance change at 340 nm at 37 °C on a Cary Bio 100 UV–Vis Spectrometer. Under normal conditions, the assay buffer was composed of 50 mM HEPES, 50 mM KCl, 10 mM MgCl2, pH 7.5. The coupled enzyme reaction additionally contained 100 μM phosphoenolpyruvate, 100 μM NADH, 100 μM dithiothreitol (DTT) and 0.05 U/μL of both pyruvate kinase and lactate dehydrogenase. 100 μM ADPH was used when ODLA concentration was varied and 100 μM ODLA was used when ADPH was varied. Once a stable baseline was established (~ 5 min), the reaction was initiated by addition of HepI to a final concentration of 50 nM or 100 nM (for high and lower substrate concentrations respectively) and all reported reaction rates are after background subtraction. When running 12 samples at once, plastic cuvette stirs and a repeat pipettor was used to inject 200 μL enzyme. Inhibition of HepI was monitored using the same ADP/NADH coupled assay, all conditions of the assay were the same as previously described unless otherwise stated. Ki values for each of the compounds were determined by varying compound final concentration from 100 μm to 10 nm, and a final concentration of 10 μM ODLA. Competition assays against ADPH were done with excess ODLA (100 μM) and varying ADPH from 2–0.25 μM. Competition assays against ODLA were done with excess ADPH (100 μM) and varying ODLA from 2–0.25 μM. Reactions were started with addition of enzyme and inhibitor was varied from 30–0.01 μM. Kinetics were fit to Lineweaver-Burke (Eq. 1), competitive (Eq. 2), non-competitive (Eq. 3), mixed (Eq. 4), Dixon (Eq. 5), or Cornish-Bowden (Eq. 6) models. All fitting and plotting was done through MATLAB R2018A.1 1/V1/[S]=KM/Vmax[S]+1/Vmax 2 V[S]=Vmax[S]/KM1+[I]/Ki+[S] 3 V[S]=Vmax[S]/1+([I]/Ki)/KM+[S] 4 V[S]=Vmax[S]/KM(1+[I]/Ki)+[S](1+[I]/αKi) 5 1/V[I]=KM1+I/Ki+[S]1+I/αKi/Vmax[S] 6 [S]/V[I]=KM1+I/Ki+[S]1+I/αKi/Vmax

HepI [2] = biological target: T2, HepI (Escherichia coli, UniProt P24173); test: Circular dichroism thermal melt of HepI; assay type: binding, E. coli K12; conditions: CD melt; for Increase in unfolding compared to apo HepI: HepI plus inhibitor, no ODLA; for Difference in melting temperature of HepI•ODLA complex caused by inhibitor: destabilization of HepI•ODLA
T2 construct: made in house; host or cells: E. coli One Shot BL-21-AI
Experimental: Circular dichroism melt experiments were performed in a Jasco J-810 spectropolarimeter in Starna 21-Q-2 cells (minimum volume 400 µL) sealed with Teflon tape to prevent evaporation. Parameters include 3 accumulations of data collected between 195–275 nm as a function of temperature (10–95 °C with 5° increments) at a ramp rate of 2°/min and a scanning rate of 50 nm/min. Samples were prepared by diluting a mixture of 5 μM HepI and some combination of 250 μM substrate/product and/or 100 μM inhibitor in a buffer of 10 mM Tris–HCl and 100 mM KCl (pH = 7.5). CD data was analyzed via in house script written in MATLAB R2018A that average a set of triplicate data, normalizes to a percent unfolded (assuming the protein is fully folded at 5 °C) at 222 nm as a function of temperature and fits to a sigmoid curve to determine the melt temperature (TM).

HepI [3] = biological target: T2, HepI; test: Intrinsic tryptophan fluorescence of HepI; assay type: binding, E. coli K12; conditions: for Blue shift of HepI tryptophan emission λmax: HepI plus ligand alone, vs apo; for Blue shift of HepI tryptophan emission λmax with ODLA and inhibitor: inhibitor added to HepI•ODLA complex
Experimental: Fluorescence spectra were measured in triplicate at room temperature using 200 μL samples containing 1 μm HepI, in a 10 mm HEPES, 50 mm KCl, and 10 mm MgCl2, pH = 7.5 buffer. Samples were contained in Starna 45-Q-3 cells (minimum volume 200 µL). Substrate and inhibitor concentrations were 100 μM. All measurements were taken using a Fluoromax-4 fluorometer with an excitation slit bandpass of 2 nm and an emission slit bandpass of 3 nm (λex = 290 nm, λem = 310–450 nm). The data was subtracted from blanks, normalized and fit to a lognormal distribution (Eq. 7)[36] to determine the emission maximum (λmax) with in house scripts written in MATLAB R2018A.7 Iλ=Imax·e^-ln2/ln^2ρ·ln^2(a-λ/a-λmax)

[4] = system: LPS production in E. coli K12; test: LPS visualization gels of lipid extracts from growth challenge samples; assay type: cell-based; conditions: for Concentration range over which LPS production decreases: E. coli K12, lipids from 4 × 10^8 cells; for IC50: Escherichia coli, E. coli K12, silver-stained gels, inflection point of sigmoid fit, read-out: IC50 of LPS production (LPS band pixel density)
Experimental: The assays were prepared by plating E. coli K12 onto an LB-agar plate and grown overnight (12–18 h)[60]. A colony forming unit was chosen to inoculate 10 mL of fresh LB media in a tightly capped 15 mL falcon tube and placed in an incubator (no agitation) at 37 °C for exactly 24 h to increase the number of viable cells for inoculation of the plate and thusly reproducibility in highly variable growth patterns. A 96-well plate was then filled with a variety of inhibitor concentrations taken from stock solutions made up in ultra-pure water allowing for one row to remain free of the inhibitor. Each inhibitor concentration was given 3-wells to ensure a triplicate of data is collected at once. With the same fresh media used to make the overnight culture, the overnight growths were added to the plate in a 1:1000 dilution (total volume 200 uL) and the plate sealed with clear adhesive plastic sealant. One row has been designated for uncultured media to be used for pre-blanking measurements and to ensure that the media isn’t growing spontaneously.
As previously established, lipid extraction occurs through lysis of surface polysaccharides with a lysis buffer containing 1% SDS, 20% glycerol, 100 mM Tris–HCl and 0.04% bromophenol blue at a pH 6.8[61]. The cellular concentrations from each well were determined using the last collected OD600 corrected using Eq. (8), centrifuged and resuspended in the correct volume of lysis buffer to obtain 4 × 10^8 cells/100 µL solution. Addition of Proteinase K at 1 mg/mL concentration was incubated for 1 h at 37 °C. These samples were then loaded onto a 15% separating, 6% stacking SDS–polyacrylamide gel (recipes received from https://www.bio-rad.com/) in a 19:1 acrylamide to bis-acrylamide ratio and run with a voltage gradient from 50–150 V. The gels were then stained using the protocol described previously with no modifications[62] and imaged using a scanner.
Relative LPS band density was determined using analysis methods provided by ImageJ software. The band pixel density were analyzed relative to a purified sample of heptosylated O-deacylated Lipid A at 100 nM. The plot was generated of relative band density vs. concentration of inhibitor[63].

T2 sequence (P24173 whole entry): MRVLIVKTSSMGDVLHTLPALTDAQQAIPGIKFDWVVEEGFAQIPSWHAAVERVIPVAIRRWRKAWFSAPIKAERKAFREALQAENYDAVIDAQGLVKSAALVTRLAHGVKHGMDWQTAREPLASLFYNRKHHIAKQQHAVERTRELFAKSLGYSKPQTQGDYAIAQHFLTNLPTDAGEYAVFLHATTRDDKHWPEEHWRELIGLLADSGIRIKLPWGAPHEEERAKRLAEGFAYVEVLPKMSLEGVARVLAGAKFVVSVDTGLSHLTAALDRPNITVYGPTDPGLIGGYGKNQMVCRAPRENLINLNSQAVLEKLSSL
T1 sequence (P24173 whole entry): as above

Row | SMILES | α value, mixed model of inhibition with ODLA ([1]; HepI WT) | kcat [1] [s⁻¹] | Ki ([1]; HepI WT) | Type of inhibition with ODLA ([1]; HepI WT) | Type of inhibition against ADPH ([1]; HepI WT) | ΔG (kcal/mol) Exp ([1]; HepI WT) [kcal/mol] | Increase in unfolding compared to apo HepI (HepI [2]) | Melting temperature (Tm) of HepI with ligand (HepI [2]; HepI plus ligand alone) | Melt of HepI with ADPH and inhibitor (HepI [2]; compared with HepI with ADPH alone) | Difference in melting temperature of HepI•ODLA complex caused by inhibitor (HepI [2]) | Extent of unfolding of HepI•ODLA complex with inhibitor (HepI [2]; inhibitor added to HepI•ODLA) | Melting temperature of HepI•ODLA complex with inhibitor (HepI [2]; inhibitor added to HepI•ODLA) | Blue shift of HepI tryptophan emission λmax (HepI [3]) | Blue shift of HepI tryptophan emission λmax with ODLA and inhibitor (HepI [3]) | Concentration at which no LPS is detectible ([4]; E. coli K12) [ng/mL] | Concentration range over which LPS production decreases [4] [ng/mL] | IC50 [4] [µg/mL]
1 | NC[C@H]1O[C@H](O[C@H]2[C@H](O)[C@@H](O[C@H]3O[C@H](CO)[C@@H](O)[C@H](N)[C@H]3O)[C@H](N)C[C@@H]2N)[C@H](N)C[C@@H]1O [Tobramycin] | greater than one | 0.15 ± 0.005 | 1.1 µM and 1.13 µM | Mixed competitive | uncompetitive | -8.1 ± 0.1 | 20% | ~ 37 °C | no changes from HepI with ADPH alone | > 30 °C | about 70% | ~ 58 °C | did not alter the λmax | 6 nm | ≥ 7.5 | 5 to 7 | 0.0064 ± 0.0001 (≈ 0.0137 µM)
2 | [H]/N=C(/N)N[C@H]1[C@H](O)[C@@H](O)[C@H](O[C@@H]2O[C@@H](C)[C@](O)(C=O)[C@H]2O[C@@H]2O[C@@H](CO)[C@H](O)[C@@H](O)[C@@H]2NC)[C@@H](N/C(N)=N\[H])[C@@H]1O [Streptomycin] | – | 0.162 ± 0.008 | 0.595 ± 0.09 µM | Non-competitive | non-competitive | -8.5 ± 0.1 | ~ 20% and 15–20% | – | – | not observed | – | no different from substrate or product alone | no changes to the emission spectra | unperturbed | – | 25 to 27.5 | 0.0262 ± 0.001 (≈ 0.045 µM)
